According to ChEMBL document CHEMBL1156251, “Structure--activity relationships of polymyxin antibiotics” (J Med Chem, 2010):
In brackets after ≈: the same amount, converted by molar mass.

What was measured:
[1] = biological target: Lipopolysaccharide (LPS); assay: Displacement of dansyl-PMB from LPS by isothermal titration calorimetry; conditions: read-out: IC50
[2] = test system: Escherichia coli; assay: Antimicrobial activity against Escherichia coli assessed as relative sensitizing activity; format: functional
[3] = test system: Escherichia coli; assay: Antimicrobial activity against Escherichia coli K-12; format: functional
[4] = test system: Escherichia coli; assay: Antimicrobial activity against Escherichia coli; format: functional
[5] = test system: Lipopolysaccharide (LPS); assay: Displacement of dansyl-PMB from LPS by fluorometric assay
[6] = test system: Pseudomonas aeruginosa; assay: Antimicrobial activity against Pseudomonas aeruginosa; format: functional, organism-based
[7] = test system: Salmonella enterica; assay: Antimicrobial activity against Salmonella enterica; format: functional
[8] = test system: Escherichia coli; assay: Antimicrobial activity against Escherichia coli at 10 ug/mL; format: functional

| SMILES | IC50 [1] | MIC [4] | MIC [6] | Activity [2] | also measured |
| --- | --- | --- | --- | --- | --- |
| CC(C)C[C@@H]1NC(=O)[C@@H](Cc2ccccc2)NC(=O)[C@H](CCN)NC(=O)[C@@H](NC(=O)[C@H](CCN)NC(=O)[C@@H](N)[C@@H](C)O)CCNC(=O)[C@H]([C@@H](C)O)NC(=O)[C@H](CCN)NC(=O)[C@H](CCN)NC1=O (stereo in doubt; 202) [POLYMYXIN B NONAPEPTIDE] | 8 µM |  |  | 5% |  |
| CCC(C)CCCCCCC(=O)N[C@H](C(=O)N[C@@H](CCN)C(=O)N[C@H]1CCNC(=O)[C@H]([C@@H](C)O)NC(=O)[C@H](CCN)NC(=O)[C@H](CCN)NC(=O)[C@H](CC(C)C)NC(=O)[C@@H](CC(C)C)NC(=O)[C@H](CCN)NC1=O)[C@@H](C)O (some centres not stated) |  |  |  |  | MIC [3]: 25 µg/mL (≈ 22.8 µM) |
| CC(C)C[C@@H]1NC(=O)[C@@H](Cc2ccccc2)NC(=O)[C@H](CCN)NC(=O)[C@H](CCN)NC(=O)[C@H](NC(=O)[C@@H](N)[C@@H](C)O)CCNC(=O)[C@H]([C@@H](C)O)NC(=O)[C@H](CCN)NC(=O)[C@H](CCN)NC1=O | 8 µM |  |  | 7% |  |
| CCC(C)CCCCCC(=O)N[C@H](C(=O)N[C@@H](CCN)C(=O)N[C@H]1CCNC(=O)[C@H]([C@@H](C)O)NC(=O)[C@H](CCN)NC(=O)[C@H](CCN)NC(=O)[C@H](CC(C)C)NC(=O)[C@@H](CC(C)C)NC(=O)[C@H](CCN)NC1=O)[C@@H](C)O (some centres not stated) |  |  |  |  | MIC [3]: 50 µg/mL (≈ 46.2 µM) |
| CC(C)C[C@@H]1NC(=O)[C@@H](Cc2ccccc2)NC(=O)[C@H](CC(=N)N)NC(=O)[C@@H](NC(=O)[C@H](CC(=N)N)NC(=O)[C@@H](N)[C@@H](C)O)CCNC(=O)[C@H]([C@@H](C)O)NC(=O)[C@H](CC(=N)N)NC(=O)[C@H](CC(=N)N)NC1=O | 3.8 µM |  |  | 25% |  |
| CC(C)C[C@@H]1NC(=O)[C@@H](Cc2ccccc2)NC(=O)[C@H](CN)NC(=O)[C@@H](NC(=O)[C@H](CN)NC(=O)[C@@H](N)[C@@H](C)O)CNC(=O)[C@H]([C@@H](C)O)NC(=O)[C@H](CN)NC(=O)[C@H](CN)NC1=O | 30 µM |  |  | 11% |  |
| CCCCCCCCCCCC(=O)N[C@H](C(=O)N[C@@H](CCN)C(=O)N[C@H]1CCNC(=O)[C@H]([C@@H](C)O)NC(=O)[C@H](CCN)NC(=O)[C@H](CCN)NC(=O)[C@H](CC(C)C)NC(=O)[C@@H](CC(C)C)NC(=O)[C@H](CCN)NC1=O)[C@@H](C)O |  |  |  |  | MIC [3]: 3 µg/mL (≈ 2.7 µM) |
| CC(C)C[C@@H]1NC(=O)[C@@H](Cc2ccccc2)NC(=O)[C@H](CCCCN)NC(=O)CN(C(=O)[C@H](CCCCN)NC(=O)[C@@H](N)[C@@H](C)O)CCCCNC(=O)[C@@H]([C@H](C)O)NC(=O)[C@H](CCCCN)NC(=O)[C@H](CCCCN)NC1=O | 35 µM |  |  | 4% |  |
| CCCCCCCCCC(=O)N[C@H](C(=O)N[C@@H](CCN)C(=O)N[C@H]1CCNC(=O)[C@H]([C@@H](C)O)NC(=O)[C@H](CCN)NC(=O)[C@H](CCN)NC(=O)[C@H](CC(C)C)NC(=O)[C@@H](CC(C)C)NC(=O)[C@H](CCN)NC1=O)[C@@H](C)O |  |  |  |  | MIC [3]: 3 µg/mL (≈ 2.77 µM) |
| CCCCCCCCCCC(=O)N[C@H](C(=O)N[C@@H](CCN)C(=O)N[C@H]1CCNC(=O)[C@H]([C@@H](C)O)NC(=O)[C@H](CCN)NC(=O)[C@H](CCN)NC(=O)[C@H](CC(C)C)NC(=O)[C@@H](CC(C)C)NC(=O)[C@H](CCN)NC1=O)[C@@H](C)O |  |  |  |  | MIC [3]: 3 µg/mL (≈ 2.73 µM) |
| CCCCCCCCCCCCCC(=O)N[C@H](C(=O)N[C@@H](CCN)C(=O)N[C@H]1CCNC(=O)[C@H]([C@@H](C)O)NC(=O)[C@H](CCN)NC(=O)[C@H](CCN)NC(=O)[C@H](CC(C)C)NC(=O)[C@@H](CC(C)C)NC(=O)[C@H](CCN)NC1=O)[C@@H](C)O |  | 4 µM | 4 µM |  | MIC [7]: 2 µM (≈ 2.28 µg/mL); MIC [3]: 12 µg/mL (≈ 10.5 µM) |
| CC(C)C[C@@H]1NC(=O)[C@@H](Cc2ccccc2)NC(=O)[C@H](CCCN)NC(=O)CN(C(=O)[C@H](CCCN)NC(=O)[C@@H](N)[C@@H](C)O)CCCNC(=O)[C@@H]([C@H](C)O)NC(=O)[C@H](CCCN)NC(=O)[C@H](CCCN)NC1=O | 25 µM |  |  | 2% |  |
| CCCCCCCCC(=O)N[C@H](C(=O)N[C@@H](CCN)C(=O)N[C@H]1CCNC(=O)[C@H]([C@@H](C)O)NC(=O)[C@H](CCN)NC(=O)[C@H](CCN)NC(=O)[C@H](CC(C)C)NC(=O)[C@@H](CC(C)C)NC(=O)[C@H](CCN)NC1=O)[C@@H](C)O |  |  |  |  | MIC [3]: 12 µg/mL (≈ 11.2 µM) |
| CCCCCCC(=O)N[C@H](C(=O)N[C@H](CO)C(=O)N[C@H]1CCNC(=O)[C@H]([C@@H](C)O)NC(=O)[C@H](CCN)NC(=O)[C@H](CCN)NC(=O)[C@H](CC(C)C)NC(=O)[C@@H](Cc2ccccc2)NC(=O)[C@H](CCN)NC1=O)[C@@H](C)O |  |  |  |  | GI [8]: 80 square millimeter |
| CCCCCCC(=O)N[C@H](C(=O)N[C@H](CO)C(=O)N[C@H]1CCNC(=O)[C@H]([C@@H](C)O)NC(=O)[C@H](CCN)NC(=O)[C@H](CCN)NC(=O)[C@H]([C@H](C)O)NC(=O)[C@@H](Cc2ccccc2)NC(=O)[C@H](CCN)NC1=O)[C@@H](C)O |  |  |  |  | GI [8]: 200 square millimeter |
| CC(C)C[C@@H]1NC(=O)[C@@H](Cc2ccccc2)NC(=O)[C@H](CCCCN)NC(=O)[C@@H](NC(=O)[C@H](CCCCN)NC(=O)[C@@H](N)[C@@H](C)O)CCNC(=O)[C@H]([C@@H](C)O)NC(=O)[C@H](CCCCN)NC(=O)[C@H](CCCCN)NC1=O | 30 µM |  |  | 5% |  |
| CC(C)C[C@@H]1NC(=O)[C@@H](Cc2ccccc2)NC(=O)[C@H](CCN)NC(=O)[C@@H](NC(=O)[C@H](CCN)NC(=O)[C@@H](N)[C@@H](C)O)CCNC(=O)[C@H]([C@@H](C)O)NC(=O)[C@H](CCCCN)NC(=O)[C@H](CCCCN)NC1=O | 12 µM |  |  | 40% |  |
| CCCCCCCC(=O)N[C@H](C(=O)N[C@H](C)C(=O)N[C@H]1CCNC(=O)[C@H]([C@@H](C)O)NC(=O)[C@H](CCN)NC(=O)[C@H](CCN)NC(=O)[C@H]([C@H](C)O)NC(=O)[C@@H](Cc2ccccc2)NC(=O)[C@H](CCN)NC1=O)[C@@H](C)O |  |  |  |  | GI [8]: 60 square millimeter |

Further lines, with some results ahead:

| IC50 [1] | MIC [4] | MIC [6] | SMILES | Activity [2] | also measured |
| --- | --- | --- | --- | --- | --- |
|  | 0.208 µg/mL | 0.206 µg/mL | CCCNCC[C@H](NC(=O)CCCCC(C)CC)C(=O)N[C@H](C(=O)N[C@@H](CCN)C(=O)N[C@H]1CCNC(=O)[C@H]([C@@H](C)O)NC(=O)[C@H](CCN)NC(=O)[C@H](CCN)NC(=O)[C@H](CC(C)C)NC(=O)[C@@H](Cc2ccccc2)NC(=O)[C@H](CCN)NC1=O)[C@@H](C)O (some centres not stated) |  | dansyl-PMB displacement concentration [5]: 2.4 µg/mL |
|  | 0.206 µg/mL | 0.175 µg/mL | CCC(C)CCCCC(=O)N[C@@H](CCNC(=O)C(N)CCCCNC(=O)OCc1ccccc1)C(=O)N[C@H](C(=O)N[C@@H](CCN)C(=O)N[C@H]1CCNC(=O)[C@H]([C@@H](C)O)NC(=O)[C@H](CCN)NC(=O)[C@H](CCN)NC(=O)[C@H](CC(C)C)NC(=O)[C@@H](Cc2ccccc2)NC(=O)[C@H](CCN)NC1=O)[C@@H](C)O (some centres not stated) |  | dansyl-PMB displacement concentration [5]: 1.12 µg/mL |
| 14 µM |  |  | CC(C)C[C@@H]1NC(=O)[C@@H](Cc2ccccc2)NC(=O)[C@H](CCCCN)NC(=O)[C@@H](NC(=O)[C@H](CCCCN)NC(=O)[C@@H](N)[C@@H](C)O)CCNC(=O)[C@@H]([C@H](C)O)NC(=O)[C@H](CCN)NC(=O)[C@H](CCN)NC1=O | 9% |  |
|  | 0.112 µg/mL | 0.146 µg/mL | CCNCC[C@H](NC(=O)CCCCC(C)CC)C(=O)N[C@H](C(=O)N[C@@H](CCN)C(=O)N[C@H]1CCNC(=O)[C@H]([C@@H](C)O)NC(=O)[C@H](CCN)NC(=O)[C@H](CCN)NC(=O)[C@H](CC(C)C)NC(=O)[C@@H](Cc2ccccc2)NC(=O)[C@H](CCN)NC1=O)[C@@H](C)O (some centres not stated) |  | dansyl-PMB displacement concentration [5]: 2.3 µg/mL |
| 15 µM |  |  | CC(C)C[C@@H]1NC(=O)[C@@H](Cc2ccccc2)NC(=O)[C@H](CCCCN)NC(=O)[C@@H](NC(=O)[C@H](CCCCN)NC(=O)[C@@H](N)[C@@H](C)O)CCNC(=O)[C@H]([C@@H](C)O)NC(=O)[C@H](CCN)NC(=O)[C@H](CCN)NC1=O | 4% |  |
|  | 1.3 µg/mL | 2.8 µg/mL | CCC(C)CCCCC(=O)N[C@@H](CCNC(C)=O)C(=O)N[C@H](C(=O)N[C@@H](CCN)C(=O)N[C@H]1CCNC(=O)[C@H]([C@@H](C)O)NC(=O)[C@H](CCN)NC(=O)[C@H](CCN)NC(=O)[C@H](CC(C)C)NC(=O)[C@@H](Cc2ccccc2)NC(=O)[C@H](CCN)NC1=O)[C@@H](C)O (some centres not stated) |  | dansyl-PMB displacement concentration [5]: 2.8 µg/mL |
|  | 0.995 µg/mL | 0.763 µg/mL | CCCNCC[C@@H]1NC(=O)[C@H](CCN)NC(=O)[C@H](CC(C)C)NC(=O)[C@@H](Cc2ccccc2)NC(=O)[C@H](CCN)NC(=O)[C@@H](NC(=O)[C@H](CCN)NC(=O)[C@@H](NC(=O)[C@H](CCN)NC(=O)CCCCC(C)CC)[C@@H](C)O)CCNC(=O)[C@H]([C@@H](C)O)NC1=O (some centres not stated) |  | dansyl-PMB displacement concentration [5]: 9.5 µg/mL |
|  | 0.028 µg/mL | 0.033 µg/mL | CCC(C)CCCCC(=O)N[C@@H](CCNC(=O)CN)C(=O)N[C@H](C(=O)N[C@@H](CCN)C(=O)N[C@H]1CCNC(=O)[C@H]([C@@H](C)O)NC(=O)[C@H](CCN)NC(=O)[C@H](CCN)NC(=O)[C@H](CC(C)C)NC(=O)[C@@H](Cc2ccccc2)NC(=O)[C@H](CCN)NC1=O)[C@@H](C)O (some centres not stated) |  | dansyl-PMB displacement concentration [5]: 8 µg/mL |
|  | 0.453 µg/mL | 0.207 µg/mL | CCC(C)CCCCC(=O)N[C@@H](CCNC(=O)C(N)CCCNC(=N)N)C(=O)N[C@H](C(=O)N[C@@H](CCN)C(=O)N[C@H]1CCNC(=O)[C@H]([C@@H](C)O)NC(=O)[C@H](CCN)NC(=O)[C@H](CCN)NC(=O)[C@H](CC(C)C)NC(=O)[C@@H](Cc2ccccc2)NC(=O)[C@H](CCN)NC1=O)[C@@H](C)O (some centres not stated) |  | dansyl-PMB displacement concentration [5]: 4.48 µg/mL |
|  | 0.492 µg/mL | 0.413 µg/mL | CCNCC[C@@H]1NC(=O)[C@H](CCN)NC(=O)[C@H](CC(C)C)NC(=O)[C@@H](Cc2ccccc2)NC(=O)[C@H](CCN)NC(=O)[C@@H](NC(=O)[C@H](CCN)NC(=O)[C@@H](NC(=O)[C@H](CCN)NC(=O)CCCCC(C)CC)[C@@H](C)O)CCNC(=O)[C@H]([C@@H](C)O)NC1=O (some centres not stated) |  | dansyl-PMB displacement concentration [5]: 9.5 µg/mL |
